Source: PubChem BioAssay (NCI)
Where “and” joins values, the source holds several entries; their conditions need not be identical. Equal entries are not always repeated.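 Dose response: 5 concentrations. Exposure: 48 h. Format: 96-well plates. Endpoint: linear interpolation; highest concentration if not reached. Abbreviation: GI50, concentration required for 50% inhibition of growth. TGI: total growth inhibition.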

Tests used:
Experiment in all cases: inhibition of tumour cell growth, NCI panel, 48 h
[1] = tested on: 786-0 renal
[2] = tested on: COLO 205 colon
[3] = tested on: HS 578T breast
[4] = tested on: HT29 colon
[5] = tested on: MALME-3M melanoma
[6] = tested on: MDA-MB-231 breast
[7] = tested on: MDA-MB-435
[8] = tested on: MOLT-4 leukemia
[9] = tested on: NCI-H226 lung
[10] = tested on: NCI-H522 lung

| Compound | TGI [1] | TGI [2] | TGI [3] | TGI [4] | TGI [5] | TGI [6] | TGI [7] | TGI [8] | TGI [9] | TGI [10] | GI50 [1] [µM] | GI50 [2] [µM] | GI50 [3] [µM] | GI50 [4] [µM] | GI50 [5] [µM] | GI50 [6] [µM] | GI50 [7] [µM] | GI50 [8] | GI50 [9] [µM] | GI50 [10] [µM] |
| --- | --- | --- | --- | --- | --- | --- | --- | --- | --- | --- | --- | --- | --- | --- | --- | --- | --- | --- | --- | --- |
| Cc1cc(Cl)ccc1Nc1sc(C(=O)c2cc3cc(Cl)ccc3o2)c(N)c1C#N | 28.6 µM | > 100 µM | > 100 µM | > 100 µM | > 100 µM | > 55 µM | > 100 µM | > 100 µM | > 100 µM | 21.9 µM | – | – | – | – | – | – | – | – | – | – |
| O=C1C=C(Nc2ccccc2)c2ncccc2C1=O | 3.05 µM | 3.92 µM | 6.58 µM | > 26.7 µM | 2.37 µM | 3.4 µM | 0.323 µM | 3.78 µM | 3.61 µM | 2.44 µM | 1.52 | 1.95 | 2.33 | 2.78 | 1.06 | 0.485 | 0.178 | 1.02 µM | 1.71 | 0.704 |
| O=c1[nH]cnc2c(C3OC(CO)C(O)C3O)[nH]nc12 (stereo not given) | > 100 µM | > 100 µM | > 100 µM | > 100 µM | > 100 µM | > 100 µM | > 100 µM | 81 µM | > 100 µM | 42.7 µM | – | – | – | – | – | – | – | – | – | – |
| CS(=O)(=O)CCNCc1ccc(-c2ccc3ncnc(Nc4ccc(OCc5ccccc5)c(C(F)(F)F)c4)c3c2)o1 | 11 µM | 9.11 µM | 12.2 µM | 9.05 µM | 9.53 µM | 8.66 µM | 10.5 µM | 17.9 µM | > 25 µM | 9.94 µM | 5.32 | 4.97 | 4.16 | 4.95 | 4.57 | 4.55 | 4.8 | 5.77 µM | 7.75 | 5.02 |
| CCCCCCN(CCCCCC)C(=N)c1ccnc2ccccc12 | 12.5 µM | 2.97 µM | 47.1 µM | 7.88 µM | 5.64 µM | 21.3 µM | 14.7 µM | 17.2 µM | 26.7 µM | 11 µM | 2.82 | 1.45 | 12 | 0.835 | 2.25 | 5.13 | 3.21 | 3.11 µM | 11.8 | 2.55 |
| CC[C@H](C)c1occ2c(O)c(C(=O)O)c(=O)cc-2c1C | > 100 µM | 36.8 µM | > 100 µM | 62.3 µM | 37.7 µM | 50.6 µM | 58 µM | 54.3 µM | > 100 µM | 30.7 µM | – | – | – | – | – | – | – | – | – | – |
| C=C(C)C(=O)NC(N)=NC#N | 140 µM | 206 µM | 797 µM | 248 µM | 63.2 µM and 214 µM | 301 µM | 259 µM | 52.2 µM and 255 µM | 330 µM | 16.4 µM and 5.88 µM | 30 | 80.5 | – | 102 | 80.8 | 161 | – | 21.5 µM and 46.7 µM | – | 2.26 |
| CCOC(=O)[C@H](CSSc1ncnc2cc[nH]c12)NC(=O)[C@@H](C)c1ccc2cc(OC)ccc2c1 | > 100 µM | > 100 µM | > 100 µM | > 100 µM | > 96.5 µM | > 100 µM | > 100 µM | > 100 µM | > 100 µM | > 31.5 µM | 0.347 | 1.85 | 7.92 | 1.38 | 4.02 | 1.08 | 0.355 | 0.388 µM | 0.614 | 0.303 |
| O=S(=O)(/C=C/C=C/S(=O)(=O)c1ccccc1)c1ccccc1 | 1.1 µM and 2.22 µM | 2.77 µM and 2.71 µM | 8.24 µM and 8.07 µM | 2.69 µM and 2.85 µM | 2.8 µM and 3.01 µM | 3.37 µM and 3.73 µM | 4.21 µM and 4.19 µM | 1.85 µM | 4.85 µM | 0.728 µM and 0.601 µM | 0.956 | 1.02 | 2.93 | 1.4 | 1.54 | 1.87 | 1.04 | – | 1.24 | 0.196 |
| CN(C)CC/C=C1\c2ccccc2Sc2ccc(Cl)cc21 | 6.88 µM and 25.6 µM | – | 15.1 µM and 37 µM | 3.96 µM and 16.4 µM | 3.47 µM and 28 µM | 9.32 µM and 28.3 µM | 4.03 µM and 23.1 µM | 9.98 µM and 25.9 µM | 9.11 µM and 38 µM | 3.23 µM and 29.1 µM | 2.5 | 1.54 | 2.99 | 1.98 | 1.71 | 2.12 | 1.77 | 3.44 µM | 2.45 | 1.67 |
